The values below come from ChEMBL document CHEMBL4613239, “α-Glucosidase and Protein Tyrosine Phosphatase 1B Inhibitors from Malbranchea circinata” (J Nat Prod, 2020).

The source made the active and inactive calls. The calls are words filed in the database; no cut-off is given here.

The target in assay [1] is T1, Tyrosine-protein phosphatase non-receptor type 1 (Homo sapiens) (UniProt P18031).
T1 sequence (whole entry): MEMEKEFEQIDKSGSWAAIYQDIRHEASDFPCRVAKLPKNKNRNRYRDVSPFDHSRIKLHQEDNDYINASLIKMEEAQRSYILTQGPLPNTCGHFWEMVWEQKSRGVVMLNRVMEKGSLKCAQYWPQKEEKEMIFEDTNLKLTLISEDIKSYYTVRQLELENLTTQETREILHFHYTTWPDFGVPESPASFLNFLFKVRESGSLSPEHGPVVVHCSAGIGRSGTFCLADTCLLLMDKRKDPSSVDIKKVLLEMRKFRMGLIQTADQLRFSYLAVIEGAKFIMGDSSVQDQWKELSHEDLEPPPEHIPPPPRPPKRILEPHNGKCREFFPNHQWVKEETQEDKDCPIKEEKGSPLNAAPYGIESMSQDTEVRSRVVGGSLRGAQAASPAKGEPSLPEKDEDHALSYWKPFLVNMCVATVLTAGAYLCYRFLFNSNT
The assay is described as follows: (§1) Inhibition of human PTP1B expressed in Escherichia coli BL21 (DE3) cells using PNPP as substate preincubated for 5 mins followed by substrate additon and measured after 15 mins.

Assay [2] addresses T2, Tyrosine-protein phosphatase non-receptor type 1 (Homo sapiens, UniProt P18031).
T2 sequence (P18031 whole entry): T1 sequence (whole entry)
The description is as §1.

Assay [3] is described as follows: Inhibition of Saccharomyces cerevisiae alpha-glucosidase using pNPG as substrate preincubated for 10 mins followed by substrate addition after 20 mins.
The nature of assay [4]: Inhibition of rat intestinal rat alpha-glucosidase.
For assay [5], the system named is Mus musculus. As to the kind of experiment: Induction of hypo glycemic activity in ICR mouse assessed as reduction in postprandial glucose level at 10 mg/kg, po pretreated for 30 mins followed by sucrose treatment and measured after 30 to 120 mins. The class given is functional, organism-based.

For the compound `CC(=O)OC[C@H]1O[C@H](Oc2cc(O)c3c(c2)C(=O)c2cc(C)cc(O)c2C3=O)[C@H](OC(C)=O)[C@@H]1OC(C)=O`, the inhibition entry in assay [1] was “Active”.

Turning to `CC(=O)O[C@H]1[C@@H](Oc2cc(O)c3c(c2)C(=O)c2cc(C)cc(O)c2C3=O)O[C@H](CO)[C@H]1OC(C)=O`, the inhibition entry in assay [1] is “Active”.

`CC(=O)O[C@H]1[C@@H](O)[C@@H](Oc2cccc3c2C(=O)c2c(O)cc(C)cc2C3=O)O[C@@H]1CO`: the inhibition entry in assay [1] is “Active”.

The term IC50 denotes the concentration at which inhibition is half-maximal. As to `CC(C)=CCc1ccc(O)c2c(=O)c3c(O)cc(C)c(O)c3oc12`, half-maximal inhibition in assay [2] (IC50) was put at 13.9 µM.

For the compound `C=CC(C)(C)[C@@]12C[C@@H]3C(=O)N4[C@H](C[C@@]5(C(C)(C)C=C)c6ccccc6N[C@@H]45)C(=O)N3[C@@H]1Nc1ccccc12`, the values for the half-inhibitory concentration (IC50) in assay [3], in assay [4] and in assay [2] were 57.4 µM, 743 µM and 15.3 µM, respectively.

On to `Cc1cc(O)c2c(c1)C(=O)c1cc(O[C@H]3O[C@H](CO)[C@@H](O)[C@H]3O)cc(O)c1C2=O`, for which the IC50 in assay [3] was 261 µM. In addition, the inhibition entry in assay [1] is “Active”.

The compound `O=C1Nc2ccccc2-c2nc3ccccc3c(=O)n2-c2ccccc21` yielded an IC50 in assay [3] of 144 µM. Moreover, the inhibition entry in assay [1] is “Active”.

On to `C[C@H]1O[C@H](O[C@H]2[C@H](O)[C@@H](O)[C@@H](O[C@H]3[C@H](O)[C@@H](O)C(O)O[C@@H]3CO)O[C@@H]2CO)[C@H](O)[C@@H](O)[C@@H]1N[C@H]1C=C(CO)[C@@H](O)[C@H](O)[C@H]1O` (stereo partly specified) [ACARBOSE], for which the results for the IC50 in assay [3] and in assay [4] were 586 µM and 151 µM, respectively. For the same compound, the outcome in assay [5] was Active.

`COC1CCC(=O)c2c(O)c(-c3cc(O)c4c(c3O)C(=O)CCC4OC)cc(O)c21` (stereo unspecified) returned a half-inhibitory concentration (IC50) in assay [2] of 10.9 µM.

Compound `O=C1Nc2ccccc2-c2nc3ccccc3c(=O)n2-c2c(O)cccc21` returned an IC50 in assay [3] of 117 µM. The inhibition entry in assay [1] is “Active”.

Regarding `CC1(C)c2[nH]c3cc(Cl)c(Cl)cc3c2C[C@@]23CN4CCC[C@]4(C[C@@H]12)C(=O)N3`, the 50% inhibitory concentration (IC50) in assay [3] turned out to be 71.3 µM; in assay [4], 459 µM; in assay [2] it was 14.5 µM. In assay [5], the result was Active.
